Assay results taken from patent publication US10183914B2 (BAYER CROPSCIENCE AKTIENGESELLSCHAFT, priority 2014, dated 2019).

Tests used:
[1] = logp (HCOOH), physicochemical characterization
[2] = system: Triticum aestivum (spring); assay: Pre-emergence herbicidal effect and crop plant compatibility; format: in vivo; settings: 80 g/ha, 3 weeks
Outline: (§1)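 Pre-emergence greenhouse test: seeds sown in sandy loam, compounds (WP or EC) sprayed onto covering soil as aqueous suspension/emulsion at 600 to 800 L/ha water with 0.2% wetting agent. Damage scored visually after 3 weeks versus untreated controls as percent efficacy (100% = plants dead).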

Zea mays [3] = assay: as above; format: in vivo; settings: 80 g/ha, 3 weeks
Outline: as §1

Alopecurus myosuroides [4] = assay: Pre-emergence herbicidal effect; format: in vivo; settings: 320 g/ha, 3 weeks
Outline: as §1

Amaranthus retroflexus = assay: Pre-emergence herbicidal effect; format: in vivo; settings: 3 weeks
Outline: as §1

Avena fatua [5] = assay: Pre-emergence herbicidal effect; format: in vivo; settings: 320 g/ha, 3 weeks
Outline: as §1

Echinochloa crus-galli [6] = assay: Pre-emergence herbicidal effect; format: in vivo; settings: 3 weeks
Outline: as §1

Lolium multiflorum [7] = assay: Pre-emergence herbicidal effect; format: in vivo; settings: 3 weeks
Outline: as §1

Matricaria inodora = assay: Pre-emergence herbicidal effect; format: in vivo; settings: 3 weeks
Outline: as §1

Polygonum convolvulus = assay: Pre-emergence herbicidal effect; format: in vivo; settings: 3 weeks
Outline: as §1

Setaria viridis [8] = assay: Pre-emergence herbicidal effect; format: in vivo; settings: 3 weeks
Outline: as §1

Stellaria media = assay: Pre-emergence herbicidal effect; format: in vivo; settings: 3 weeks
Outline: as §1

Veronica persica = assay: Pre-emergence herbicidal effect; format: in vivo; settings: 3 weeks
Outline: as §1

Viola tricolor = assay: Pre-emergence herbicidal effect; format: in vivo; settings: 3 weeks
Outline: as §1

Brassica napus = assay: Post-emergence herbicidal effect and crop plant compatibility; format: in vivo; settings: 80 g/ha, visual scoring after about 3 weeks
Outline: (§2)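 Greenhouse-grown plants at the one-leaf stage (2–3 weeks after sowing) were sprayed with WP or EC formulations in water at 600–800 L/ha plus 0.2% wetting agent. About 3 weeks later, efficacy was scored visually against untreated controls: 100% = plants dead, 0% = like control.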

Oryza sativa [9] = assay: as above; format: in vivo; settings: visual scoring after about 3 weeks
Outline: as §2

[10] = system: Triticum aestivum (spring); assay: as above; format: in vivo; settings: visual scoring after about 3 weeks
Outline: as §2

Zea mays [11] = assay: as above; format: in vivo; settings: visual scoring after about 3 weeks
Outline: as §2

Oryza sativa [12] = assay: Pre-emergence herbicidal effect and crop plant compatibility; format: in vivo; settings: 3 weeks
Outline: as §1

Abutilon theophrasti = assay: Pre-emergence herbicidal effect; format: in vivo; settings: 3 weeks
Outline: as §1

Ipomoea purpurea [13] = assay: Pre-emergence herbicidal effect; format: in vivo; settings: 320 g/ha, 3 weeks
Outline: as §1

Alopecurus myosuroides [14] = assay: Post-emergence herbicidal effect; format: in vivo; settings: 320 g/ha, visual scoring after about 3 weeks
Outline: as §2

Avena fatua [15] = assay: Post-emergence herbicidal effect; format: in vivo; settings: 320 g/ha, visual scoring after about 3 weeks
Outline: as §2

Echinochloa crus-galli [16] = assay: Post-emergence herbicidal effect; format: in vivo; settings: visual scoring after about 3 weeks
Outline: as §2

Ipomoea purpurea [17] = assay: Post-emergence herbicidal effect; format: in vivo; settings: scoring after about 3 weeks
Outline: as §2

Lolium multiflorum [18] = assay: Post-emergence herbicidal effect; format: in vivo; settings: 320 g/ha, visual scoring after about 3 weeks
Outline: as §2

Setaria viridis [19] = assay: Post-emergence herbicidal effect; format: in vivo; settings: 320 g/ha (dose by row order of upper half), scoring after about 3 weeks
Outline: as §2

## CC1CC(=O)c2cnc(N[C@@H]3CCCc4ccccc43)nc2C1 (stereo partly drawn) [2.26]
[1]
  logp (HCOOH): oily; logp (HCOOH): 3.45; 1H-NMR (CDCl3, 400 MHZ, δ in ppm): 1.15 (m, 3H, CH3);
[2]
  TRZAS herbicidal activity in percent: 0%
Zea mays [3]
  ZEAMX herbicidal activity in percent: 0%
Alopecurus myosuroides [4]
  ALOMY herbicidal activity in percent: 90%
Amaranthus retroflexus; 80 g/ha
  AMARE herbicidal activity in percent: 100%
Amaranthus retroflexus; 320 g/ha
  AMARE herbicidal activity in percent: 100%
Avena fatua [5]
  AVEFA herbicidal activity in percent: 90%
Echinochloa crus-galli [6]; 80 g/ha
  ECHCG herbicidal activity in percent: 80%
Echinochloa crus-galli [6]; 320 g/ha
  ECHCG herbicidal activity in percent: 100%
Lolium multiflorum [7]; 320 g/ha
  LOLMU herbicidal activity in percent: 100%
Matricaria inodora; 320 g/ha
  MATIN herbicidal activity in percent: 100%
Polygonum convolvulus; 320 g/ha
  POLCO herbicidal activity in percent: 100%
Setaria viridis [8]; 320 g/ha
  SETVI herbicidal activity in percent: 90%
Stellaria media; 80 g/ha
  STEME herbicidal activity in percent: 100%
Stellaria media; 320 g/ha
  STEME herbicidal activity in percent: 100%
Veronica persica; 80 g/ha
  VERPE herbicidal activity in percent: 80%
Veronica persica; 320 g/ha
  VERPE herbicidal activity in percent: 100%
Viola tricolor; 80 g/ha
  VIOTR herbicidal activity in percent: 90%
Viola tricolor; 320 g/ha
  VIOTR herbicidal activity in percent: 100%
Brassica napus
  post-emergence efficacy BRSNW: 20%
Oryza sativa [9]; 80 g/ha
  post-emergence efficacy ORYSA: 0%
Oryza sativa [9]; 320 g/ha
  post-emergence efficacy ORYSA: 0%
[10]; 80 g/ha
  post-emergence efficacy TRZAS: 0%
[10]; 320 g/ha
  post-emergence efficacy TRZAS: 0%
Zea mays [11]; 80 g/ha
  post-emergence efficacy ZEAMX: 0%
Zea mays [11]; 320 g/ha
  post-emergence efficacy ZEAMX: 0%

## Cc1ccc2c(c1)[C@H](Nc1ncc3c(n1)CC(C)(C)CC3=O)[C@@H](C)C2 [2.45]
[1]
  logp (HCOOH): oily; logp (HCOOH): 4.23; 1H-NMR (CDCl3, 400 MHZ, δ in ppm): 1.10 (m, 6H,
Oryza sativa [12]; 80 g/ha
  ORYSA herbicidal activity in percent: 0%
Oryza sativa [12]; 320 g/ha
  ORYSA herbicidal activity in percent: 10%
Zea mays [3]
  ZEAMX herbicidal activity in percent: 10%
Abutilon theophrasti; 80 g/ha
  ABUTH herbicidal activity in percent: 80%
Abutilon theophrasti; 320 g/ha
  ABUTH herbicidal activity in percent: 80%
Alopecurus myosuroides [4]
  ALOMY herbicidal activity in percent: 90%
Amaranthus retroflexus; 80 g/ha
  AMARE herbicidal activity in percent: 100%
Amaranthus retroflexus; 320 g/ha
  AMARE herbicidal activity in percent: 100%
Avena fatua [5]
  AVEFA herbicidal activity in percent: 80%
Echinochloa crus-galli [6]; 80 g/ha
  ECHCG herbicidal activity in percent: 100%
Echinochloa crus-galli [6]; 320 g/ha
  ECHCG herbicidal activity in percent: 100%
Ipomoea purpurea [13]
  PHBPU herbicidal activity in percent: 90%
Lolium multiflorum [7]; 80 g/ha
  LOLMU herbicidal activity in percent: 80%
Lolium multiflorum [7]; 320 g/ha
  LOLMU herbicidal activity in percent: 100%
Matricaria inodora; 80 g/ha
  MATIN herbicidal activity in percent: 90%
Matricaria inodora; 320 g/ha
  MATIN herbicidal activity in percent: 90%
Polygonum convolvulus; 80 g/ha
  POLCO herbicidal activity in percent: 100%
Polygonum convolvulus; 320 g/ha
  POLCO herbicidal activity in percent: 100%
Setaria viridis [8]; 80 g/ha
  SETVI herbicidal activity in percent: 100%
Setaria viridis [8]; 320 g/ha
  SETVI herbicidal activity in percent: 100%
Stellaria media; 80 g/ha
  STEME herbicidal activity in percent: 100%
Stellaria media; 320 g/ha
  STEME herbicidal activity in percent: 100%
Veronica persica; 80 g/ha
  VERPE herbicidal activity in percent: 100%
Veronica persica; 320 g/ha
  VERPE herbicidal activity in percent: 100%
Viola tricolor; 80 g/ha
  VIOTR herbicidal activity in percent: 100%
Viola tricolor; 320 g/ha
  VIOTR herbicidal activity in percent: 100%
Oryza sativa [9]; 80 g/ha
  post-emergence efficacy ORYSA: 20%
[10]; 80 g/ha
  post-emergence efficacy TRZAS: 10%
[10]; 320 g/ha
  post-emergence efficacy TRZAS: 10%
Zea mays [11]; 80 g/ha
  post-emergence efficacy ZEAMX: 0%
Zea mays [11]; 320 g/ha
  post-emergence efficacy ZEAMX: 0%
Alopecurus myosuroides [14]
  post-emergence efficacy ALOMY: 80%
Avena fatua [15]
  post-emergence efficacy AVEFA: 80%
Echinochloa crus-galli [16]; 80 g/ha
  post-emergence efficacy ECHCG: 100%
Echinochloa crus-galli [16]; 320 g/ha
  post-emergence efficacy ECHCG: 100%
Ipomoea purpurea [17]; 80 g/ha (dose by row order of upper half)
  post-emergence efficacy PHBPU: 100%
Ipomoea purpurea [17]; 320 g/ha (dose by row order of upper half)
  post-emergence efficacy PHBPU: 100%
Lolium multiflorum [18]
  post-emergence efficacy LOLMU: 100%
Setaria viridis [19]
  post-emergence efficacy SETVI: 90%
